According to publication PMC7782499, “Progerinin, an optimized progerin-lamin A binding inhibitor, ameliorates premature senescence phenotypes of Hutchinson-Gilford progeria syndrome” (Communications Biology, 2021):
“And” between values parts separate entries of the source, which are not always exact repeats. Equal values may be shown once.

Assays:
HGPS cells = assay: Ki67-positive cells in HGPS cells; assay type: cell-based, human; conditions: for Ki67 positive cells/total cells: AG03199; for Ki67 positive cells/total cells (ratio): AG11498, 3 days
Procedure: A. In vivo pharmacokinetic (PK) analysis of JH010 (performed in rats). […] B Effect of SLC-D011 on human ERG (hERG). […] C In vivo pharmacokinetic analysis of SLD-D011. […] HEK293 cells transiently transfected with GFP-PG vectors were treated with SLC-D011 for 24 hr (n = 3 independent experiment; two-tailed Student’s t test). […] “Con” means dimethyl sulfoxide (DMSO)-treated control.
Cells were cultured on coverslips, washed with PBS, fixed with 4% paraformaldehyde (PFA) for 30 min at RT, and then permeabilized with 0.2% Triton X-100 at RT for 5 min. After treatment with blocking solution (anti-Human antibody diluted 1:400 in PBS) for 1 h, cells were incubated with anti-lamin A/C (1:400), anti-progerin (1:100), Ki67 (1:200), and anti-H3K9me3 (1:200) in blocking buffer overnight at 4 °C. Finally, cells were incubated with fluorescein isothiocyanate and rhodamine-conjugated secondary antibodies at 4 °C for 7 h. Nuclei were stained with DAPI (4, 6-diamidino-2-phenylindole) at RT for 10 min. After cells were washed three times with PBS, coverslips were mounted with mounting solution (H-5501; Vector Laboratories, Burlingame, CA, USA). Immunofluorescence signal was detected with a fluorescence microscopy (Zeiss and Logos).
HGPS cells were treated with SLC-D011 at a low concentration ( from 10
nM to 5μM) for 3 days. C. […]
[…] DAPI indicated DNA.

[1] = Liver microsomal stability, human; assay type: in vitro ADME; conditions: liver microsomes, read-out: Liver microsomal stability (% remaining during 30min)
Procedure: (§1) At pre-set time-points, blood concentration of JH4 was determined by LC-MS/MS analysis[22],[23]. Other chemicals were also tested using similar protocol. In vitro ADME studies (plasma protein binding, CYP inhibition, microsomal stability, plasma stability, and hERG inhibition) were performed by New Drug Development Center (Daegu, Korea) using standard protocols[24],[25].

[2] = Liver microsomal stability, rat; assay type: in vitro ADME; conditions: liver microsomes, read-out: Liver microsomal stability (% remaining during 30min)
Procedure: as §1, with “For PK analysis, 5 mg/kg of JH4 in 10% DMSO, 5% […] solution were intravenously injected and 10 mg/kg of JH4 in 10% NMP and 90% PEG400 solution were orally delivered. At” for “At”

Plasma stability, rat = assay type: in vitro ADME
Procedure: as §1, with “For PK analysis, 5 mg/kg of JH4 in 10% DMSO, 5% […] solution were intravenously injected and 10 mg/kg of JH4 in 10% NMP and 90% PEG400 solution were orally delivered. At” for “At”

[3] = Solubility and stability of SLC-D011 in water and monoolein-based solution; assay type: physicochemical
Procedure: Fig. S9. In vitro ADME results of SLC-D011 via oral administration. A. Formulation for complete dissolution. Due to its extremely hydrophobic property, SLC-D011 was not dissolved in water solution (left). To overcome this problem, several edible solutions were tested and monoolein- based solution was selected as a dissolving solution (right). B. SLC-D011 was very stable in solution. For complete dissolution, heating at 80℃ and sonication step were required. However, SLC -D011 was not broken despite of heating […]
and sonication. […] C and D.
Pharmacokinetic analysis of SLC -D011dissolved in monoolein- based solution.

## CC1(C)Oc2cc3oc(=O)ccc3cc2C[C@@H]1OC/C=C/c1ccccc1 [SLC-D011]
HGPS cells; 10nM, Ave
  Ki67 positive cells/total cells: 0.1497 ratio
HGPS cells; 10nM, individual replicate
  Ki67 positive cells/total cells: 0.0625 ratio and 0.2083 ratio and 0.1538 ratio and 0.1646 ratio and 0.1594 ratio
HGPS cells; 50nM, Ave
  Ki67 positive cells/total cells: 0.369 ratio
HGPS cells; 50nM, individual replicate
  Ki67 positive cells/total cells: 0.2857 ratio and 0.375 ratio and 0.4444 ratio and 0.5 ratio and 0.24 ratio
HGPS cells; 100nM, Ave
  Ki67 positive cells/total cells: 0.418 ratio
HGPS cells; 100nM, individual replicate
  Ki67 positive cells/total cells: 0.275 ratio and 0.3214 ratio and 0.4286 ratio and 0.44 ratio and 0.625 ratio
HGPS cells; 500nM, Ave
  Ki67 positive cells/total cells: 0.45 ratio
HGPS cells; 500nM, individual replicate
  Ki67 positive cells/total cells: 0.3889 ratio and 0.5 ratio and 0.5714 ratio and 0.3684 ratio and 0.4211 ratio
HGPS cells; 1μM, Ave
  Ki67 positive cells/total cells: 0.4556 ratio
HGPS cells; 1μM, individual replicate
  Ki67 positive cells/total cells: 0.4146 ratio and 0.4286 ratio and 0.5 ratio and 0.4792 ratio
HGPS cells; 2μM, Ave
  Ki67 positive cells/total cells: 0.479 ratio
HGPS cells; 2μM, individual replicate
  Ki67 positive cells/total cells: 0.5 ratio (2×) and 0.44 ratio and 0.4762 ratio
HGPS cells; 5μM, Ave
  Ki67 positive cells/total cells: 0.4663 ratio
HGPS cells; 5μM, individual replicate
  Ki67 positive cells/total cells: 0.3571 ratio and 0.2857 ratio and 0.75 ratio and 0.5909 ratio and 0.3478 ratio
HGPS cells; 10nM
  Ki67 positive cells/total cells (ratio): 0.25 and 0.2222 and 0.2143 and 0.3
HGPS cells; 10nM, mean
  Ki67 positive cells/total cells (ratio): 0.2466
HGPS cells; 50nM
  Ki67 positive cells/total cells (ratio): 0.2857 and 0.3333 and 0.375 and 0.2
HGPS cells; 50nM, mean
  Ki67 positive cells/total cells (ratio): 0.2985
HGPS cells; 100nM
  Ki67 positive cells/total cells (ratio): 0.3333 and 0.3125 and 0.4 and 0.375
HGPS cells; 100nM, mean
  Ki67 positive cells/total cells (ratio): 0.3552
HGPS cells; 500nM
  Ki67 positive cells/total cells (ratio): 0.375 and 0.4444 and 0.4286
HGPS cells; 500nM, mean
  Ki67 positive cells/total cells (ratio): 0.4058
HGPS cells; 1μM
  Ki67 positive cells/total cells (ratio): 0.3333 and 0.4 and 0.6 and 0.375
HGPS cells; 1μM, mean
  Ki67 positive cells/total cells (ratio): 0.4271
HGPS cells; 2μM
  Ki67 positive cells/total cells (ratio): 0.4 and 0.375 and 0.4167
HGPS cells; 2μM, mean
  Ki67 positive cells/total cells (ratio): 0.3979
HGPS cells; HGPS cells
  Concentration enough for inducing Ki67 expression: 100 nM
[1]
  remaining at 0.5 h: 21.5%
[2]
  remaining at 0.5 h: 17.4%
Plasma stability, rat; 30min
  remaining at 0.5 h: 83.6%
Plasma stability, rat; 120min
  remaining at 2 h: 75.1%
[3]
  Solubility in water: very low solubility in water
[3]; after heating and sonicating
  Stability in monoolein-based solution: very stable in the solution
